Measured values as given in patent US11827628B2, “Compositions and methods for inhibition of the JAK pathway” (Rigel Pharmaceuticals, Inc., priority 2005, dated 2023).
Where two headings read alike, the source gives them in different places.

Experiments:
[1] = system: IL-4 stimulated expression of CD23 in human Ramos B cells (JAK-1 and JAK-3); assay: Assay for Ramos B-Cell Line Stimulated with IL-4 (CD23 upregulation, FACS); assay type: cell-based; details: read-out: IC50, Example 41
In short: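 Log-phase Ramos cells, 1 h compound pre-incubation at 37 °C; IL-4 50 units/mL final, 20-24 h; CD23-PE stain, FACS; IC50.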

[2] = system: Primary human T-cells; assay: Primary Human T-Cell Proliferation Assay Stimulated with IL-2 (CellTiter-Glo); assay type: cell-based; details: read-out: IC50, Example 42
In short: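 Peripheral blood T-cells pre-activated with anti-CD3/anti-CD28 and IL-2 were washed free of IL-2, then cultured with compound plus IL-2 for 72 hours at 37° C, duplicate wells. Viability read as ATP by CellTiter-Glo luminescence; IC50 reported.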

[3] = Homo sapiens, Ramos, Ramos B-cell line stimulated with IL-4, CD23 expression by FACS
[4] = Homo sapiens, T-cell, primary human T-cell proliferation stimulated with IL-2
[5] = Ramos B cells stimulated with IL-4, CD23 expression by FACS
[6] = primary human T-cells stimulated with IL-2, proliferation

IC50 [1, 3] [µM]	Compound	IC50 [2, 4] [µM]	further results
0.152	N#CCOc1ccc(Nc2nc(Nc3ccc(S(N)(=O)=O)cc3)ncc2F)cc1-c1ccn(CC#N)n1 [Compound I-52, N2-(4-Aminosulfonylphenyl)-N4-[4-cyanomethoxy-3-(1-cyanomethylpyrazol-3-yl)phenyl]-5-fluoro-2,4-pyrimidinediamine]	5.3	
0.144	Cc1ccc(Nc2ncc(F)c(Nc3ccc(OC4CCN(C)CC4)cc3)n2)cc1S(N)(=O)=O [II-7, N2-(3-Aminosulfonyl-4-methylphenyl)-5-fluoro-N4-{4-[(1-methylpiperidin-4-yl)oxy]phenyl}-2,4-pyrimidinediamine]	0.522	
0.262	CN(C)C(=O)COc1ccc(Nc2nc(Nc3ccc(S(N)(=O)=O)cc3)ncc2F)cc1Cl [Compound I-131, N2-(4-Aminosulfonylphenyl)-N4-(3-chloro-4-dimethylaminocarbonylmethoxyphenyl)-5-fluoro-2,4-pyrimidinediamine]	3.78	
0.315	NS(=O)(=O)c1ccc(Nc2ncc(F)c(Nc3ccc(OCCN4CCOCC4)cc3)n2)cc1 [Compound I-205, N2-(4-Aminosulfonylphenyl)-5-fluoro-N4-[4-(2-morpholinoethyloxy)phenyl)-2,4-pyrimidinediamine]	1.86	
0.0843	Cc1cc(COc2ccc(Nc3nc(Nc4cccc(S(N)(=O)=O)c4)ncc3F)cc2)no1 [Compound I-230, N2-(3-Aminosulfonylphenyl)-5-fluoro-N4-[4-(5-methylisoxazol-3-yl)methyleneoxyphenyl]-2,4-pyrimidinediamine]	0.0693	
0.111	Cc1ccc(Nc2ncc(F)c(Nc3ccc(OC4CCN(C)CC4)c(C(F)(F)F)c3)n2)cc1S(N)(=O)=O [II-6, N2-(3-Aminosulfonyl-4-methylphenyl)-5-fluoro-N4-{4-[(1-methylpiperidin-4-yl)oxy]-3-trifluoromethylphenyl}-2,4-pyrimidinediamine]	1.22	
0.461	Cc1cnc(Nc2cccc(S(N)(=O)=O)c2)nc1Nc1ccc(OCC(=O)N(C)C)c(F)c1 [Compound I-138, N2-(3-Aminosulfonylphenyl)-N4-(4-dimethylaminocarbonylmethoxy-3-fluorophenyl)-5-methyl-2,4-pyrimidinediamine]	0.223	
0.0536	CN(C)C(=O)OCCc1ccc(Nc2nc(Nc3cccc(S(N)(=O)=O)c3)ncc2F)cc1 [III-57, N2-(3-Aminosulfonylphenyl)-N4-{4-[2-(dimethylaminocarbonyloxy)ethyl]phenyl}-5-fluoro-2,4-pyrimidinediamine]	0.17	
0.142	COc1ccc(Nc2ncc(F)c(Nc3ccc(Cc4ccncc4)cc3)n2)cc1S(N)(=O)=O [III-66, N2-(3-Aminosulfonyl-4-methoxyphenyl)-5-fluoro-N4-[4-(4-pyridinylmethyl)phenyl]-2,4-pyrimidinediamine]	1.15	
0.145	Cc1cnc(Nc2ccc(S(N)(=O)=O)cc2)nc1Nc1ccc(OCC(N)=O)cc1 [Compound I-108, N4-(4-Aminocarbonylmethoxyphenyl)-N2-(4-aminosulfonylphenyl)-5-methyl-2,4-pyrimidinediamine]	0.148	
0.043	Cc1cc(Nc2nc(Nc3cccc(S(N)(=O)=O)c3)ncc2F)ccc1CCC#N [III-20, N2-(3-Aminosulfonylphenyl)-N4-[4-(2-cyanoethyl)-3-methylphenyl]-5-fluoro-2,4-pyrimidinediamine]	0.763	
0.212	NC(=O)COc1ccc(Nc2nc(Nc3ccc(S(N)(=O)=O)cc3)ncc2F)cc1Cl [Compound I-97, N4-(4-Aminocarbonylmethoxy-3-chlorophenyl)-N2-(4-aminosulfonylphenyl)-5-fluoro-2,4-pyrimidinediamine]	0.869	
	COc1ccc(CN2C(=O)C(C)Oc3ccc(Nc4nc(Nc5ccc(S(N)(=O)=O)cc5)ncc4F)cc32)cc1 (racemic) [Compound V-4, Racemic N2-(4-Aminosulphonylphenyl)-5-fluoro-N4-[2-methyl-3-oxo-4-(4-methoxybenzyl)-benz[1,4]oxazin-6-yl]-2,4-pyrimidinediamine]		IC50 [1, 5]: 0.108 µM; IC50 [2, 6]: 1.54 µM
0.177	Cc1ccc(Nc2ncc(F)c(NCCc3ccc(-c4ccncc4)cc3)n2)cc1S(N)(=O)=O [III-77, N2-(3-Aminosulfonyl-4-methylphenyl)-5-fluoro-N4-[4-(4-pyridinyl)phenethyl]-2,4-pyrimidinediamine]	0.209	
0.0686	Cc1ccc(Nc2ncc(F)c(Nc3ccc(OCC(N)=O)c(Cl)c3)n2)cc1S(N)(=O)=O [Compound I-99, N4-(4-Aminocarbonylmethoxy-3-chlorophenyl)-N2-(3-aminosulfonyl-4-methylphenyl)-5-fluoro-2,4-pyrimidinediamine]	0.148	
0.375	Cc1ccc(Nc2ncc(C)c(Nc3ccc(OCC(=O)N(C)C)c(F)c3)n2)cc1S(N)(=O)=O [Compound I-139, N2-(3-Aminosulfonyl-4-methylphenyl)-N4-(4-dimethylaminocarbonylmethoxy-3-fluorophenyl)-5-methyl-2,4-pyrimidinediamine]	0.24	
0.387	Cc1cnc(Nc2ccc(S(N)(=O)=O)cc2)nc1Nc1ccc(OCC(=O)N(C)C)c(F)c1 [Compound I-137, N2-(4-Aminosulfonylphenyl)-N4-(4-dimethylaminocarbonylmethoxy-3-fluorophenyl)-5-methyl-2,4-pyrimidinediamine]	1.1	
0.0952	Cc1ccc(Nc2ncc(F)c(Nc3ccc(Cc4ccncc4)cc3)n2)cc1S(N)(=O)=O [III-74, N2-(3-Aminosulfonyl-4-methylphenyl)-5-fluoro-N4-[4-(4-pyridinylmethyl)phenyl]-2,4-pyrimidinediamine]	0.175	
	Cc1cc(Nc2nc(Nc3ccc(S(N)(=O)=O)cc3)ncc2F)cc(C)c1N1CCN(C)CC1 [IX-44, N2-(4-Aminosulfonylphenyl)-N4-[3,5-dimethyl-4-(4-methylpiperazin-1-yl]phenyl)-5-fluoro-2,4-pyrimidinediamine]		IC50 ([1]; Homo sapiens, Ramos, Ramos B cells stimulated with IL-4, CD23 expression by FACS): 0.223 µM; IC50 ([2]; Homo sapiens, T-cell, primary human T-cells stimulated with IL-2, proliferation): 0.789 µM
0.135	NC(=O)OCCc1ccc(Nc2nc(Nc3cccc(S(N)(=O)=O)c3)ncc2F)cc1 [III-54, N4-{4-[2-(Aminocarbonyloxy)ethyl]phenyl}-N2-(3-aminosulfonylphenyl)-5-fluoro-2,4-pyrimidinediamine]	0.14	
0.0303	Cc1ccc(Nc2ncc(F)c(Nc3ccc(CCC#N)c(Cl)c3)n2)cc1S(N)(=O)=O [III-21, N2-(3-Aminosulfonyl-4-methylphenyl)-N4-[3-chloro-4-(2-cyanoethyl)phenyl]-5-fluoro-2,4-pyrimidinediamine]	0.114	
0.141	NS(=O)(=O)c1cccc(Nc2ncc(F)c(NCCc3ccc(-n4ccnc4)cc3)n2)c1 [III-87, N2-(3-Aminosulfonylphenyl)-5-fluoro-N4-[4-(1-imidazolyl)phenethyl]-2,4-pyrimidinediamine]	0.142	
0.123	Cc1nnc(COc2ccc(Nc3nc(Nc4ccc(C)c(S(N)(=O)=O)c4)ncc3F)cc2)o1 [Compound I-279, N2-(3-Aminosulfonyl-4-methylphenyl)-5-fluoro-N4-[4-(5-methyl-1,3,4-oxadiazol-2-yl)methoxyphenyl]-2,4-pyrimidinediamine]	0.167	
0.0532	N#CCOc1ccc(Nc2nc(Nc3ccc(S(N)(=O)=O)cc3)ncc2F)cc1F [Compound I-44, N2-(4-Aminosulfonylphenyl)-N4-(4-cyanomethoxy-3-fluorophenyl)-5-fluoro-2,4-pyrimidinediamine]	0.342	
	NS(=O)(=O)c1cccc(Nc2ncc(F)c(Nc3ccc(CN4CCS(=O)(=O)CC4)cc3)n2)c1 [III-110, N2-(3-Aminosulfonylphenyl)-5-fluoro-N4-{4-[(1,1-dioxothiomorpholin-4-yl-)methyl]phenyl}-2,4-pyrimidinediamine]		IC50 [1, 5]: 0.247 µM; IC50 [2, 6]: 0.998 µM
	COc1ccc(Nc2ncc(F)c(Nc3ccc(CN4CCSCC4)cc3)n2)cc1S(N)(=O)=O [III-109, N2-(3-Aminosulfonyl-4-methyoxyphenyl)-5-fluoro-N4-(4-thiomorpholinomethylenephenyl)-2,4-pyrimidinediamine]		IC50 [1, 5]: 0.143 µM; IC50 [2, 6]: 0.252 µM
	N4-(3,4-Dichlorophenyl)-5-fluoro-N2-[3-(4-methylpipendin-1-yl)aminosulfonylphenyl]-2,4-pyrimidinediamine [VI-10]		IC50 [1, 5]: 0.22 µM; IC50 [2, 6]: 2.4 µM
0.107	NS(=O)(=O)c1cccc(Nc2ncc(F)c(Nc3ccc(Oc4cccnc4)cc3)n2)c1 [II-11, N2-(3-Aminosulfonylphenyl)-5-fluoro-N4-[4-(3-pyridyloxy)phenyl]-2,4-pyrimidinediamine]	0.198	
0.135	CNC(=O)OCCc1ccc(Nc2nc(Nc3cccc(S(N)(=O)=O)c3)ncc2F)cc1 [III-60, N2-(3-Aminosulfonylphenyl)-5-fluoro-N4-{4-[2-(methylaminocarbonyloxy)ethyl]phenyl}-2,4-pyrimidinediamine]	0.178	
	Cc1ccc(Nc2ncc(F)c(Nc3ccc(CN4CCS(=O)(=O)CC4)cc3)n2)cc1S(N)(=O)=O [III-111, N2-(3-Aminosulfonyl-4-methylphenyl)-5-fluoro-N4-{4-[(1,1-dioxothiomorpholin-4-yl-)methyl]phenyl}-2,4-pyrimidinediamine]		IC50 [1, 5]: 0.321 µM; IC50 [2, 6]: 0.926 µM
